PubChem BioAssay (NCI)
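How tested: cells in 96-well plates exposed to compound for 48 hours at five concentrations. TGI: concentration producing complete growth inhibition.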

Key:
Assay in all cases: growth of human tumour cells (NCI), 48 h
[1] = system: HS 578T breast
[2] = system: A549 NSCLC
[3] = system: NCI-H226 lung
[4] = system: HCT-116 colon
[5] = system: SR leukemia
[6] = system: MDA-N
[7] = system: MDA-MB-435
[8] = system: IGROV1 ovarian
[9] = system: M14 melanoma
[10] = system: LOX IMVI melanoma
[11] = system: NCI-H23 lung
[12] = system: HOP-62 NSCLC
[13] = system: K-562 leukemia
[14] = system: SN12C renal
[15] = system: TK-10 renal
[16] = system: MOLT-4 leukemia
[17] = system: HCT-15 colon
[18] = system: SF-539 CNS
[19] = system: MDA-MB-231 breast
[20] = system: UACC-257 melanoma
[21] = system: COLO 205 colon
[22] = system: MCF7 breast
[23] = system: CAKI-1 renal
[24] = system: NCI-H460 lung
[25] = system: ACHN renal
[26] = system: KM12 colon
[27] = system: SNB-75 CNS
[28] = system: PC-3 prostate
[29] = system: EKVX NSCLC
[30] = system: SK-MEL-5 melanoma
[31] = system: U251 CNS
[32] = system: 786-0 renal
[33] = system: UO-31 renal
[34] = system: NCI/ADR-RES ovarian
[35] = system: SF-295 CNS
[36] = system: SK-MEL-28 melanoma
[37] = system: SF-268 CNS
[38] = system: NCI-H522 lung
[39] = system: SNB-19 CNS
[40] = system: OVCAR-4 ovarian
[41] = system: SK-MEL-2 melanoma
[42] = system: OVCAR-3 ovarian
[43] = system: SK-OV-3 ovarian
[44] = system: HT29 colon
[45] = system: UACC-62 melanoma
[46] = system: MALME-3M melanoma
[47] = system: RPMI-8226 leukemia
[48] = system: OVCAR-8 ovarian
[49] = system: SW-620 colon
[50] = system: OVCAR-5 ovarian
[51] = system: T-47D breast
[52] = system: HCC-2998 colon
[53] = system: BT-549 breast
[54] = system: HOP-92 NSCLC
[55] = system: HL-60(TB) leukemia
[56] = system: RXF 393 renal

Compound: COP1(=O)OCc2cnccc2O1 (stereo not drawn)
- TGI [1]: > 100 µM
- TGI [2]: > 100 µM
- TGI [3]: > 100 µM
- TGI [4]: > 100 µM
- TGI [5]: > 100 µM
- TGI [6]: > 100 µM
- TGI [7]: > 100 µM
- TGI [8]: > 100 µM
- TGI [9]: > 100 µM
- TGI [10]: > 100 µM
- TGI [11]: > 100 µM
- TGI [12]: > 100 µM
- TGI [13]: > 100 µM
- TGI [14]: > 100 µM
- TGI [15]: > 100 µM
- TGI [16]: > 100 µM
- TGI [17]: > 100 µM
- TGI [18]: > 100 µM
- TGI [19]: > 100 µM
- TGI [20]: > 100 µM
- TGI [21]: > 100 µM
- TGI [22]: > 100 µM
- TGI [23]: > 100 µM
- TGI [24]: > 100 µM
- TGI [25]: > 100 µM
- TGI [26]: > 100 µM
- TGI [27]: > 100 µM
- TGI [28]: > 100 µM
- TGI [29]: > 100 µM
- TGI [30]: > 100 µM
- TGI [31]: > 100 µM
- TGI [32]: > 100 µM
- TGI [33]: > 100 µM
- TGI [34]: > 100 µM
- TGI [35]: > 100 µM
- TGI [36]: > 100 µM
- TGI [37]: > 100 µM
- TGI [38]: > 100 µM
- TGI [39]: > 100 µM
- TGI [40]: > 100 µM
- TGI [41]: > 100 µM
- TGI [42]: > 100 µM
- TGI [43]: > 100 µM
- TGI [44]: > 100 µM
- TGI [45]: > 100 µM
- TGI [46]: > 100 µM
- TGI [47]: > 100 µM
- TGI [48]: > 100 µM
- TGI [49]: > 100 µM
- TGI [50]: > 100 µM
- TGI [51]: > 100 µM
- TGI [52]: > 100 µM
- TGI [53]: > 100 µM

Compound: COc1ccc2c(c1)CN1C(=N2)CSC1c1c(Cl)cccc1[N+](=O)[O-] (stereo not drawn)
- TGI [1]: > 100 µM
- TGI [2]: > 100 µM
- TGI [3]: 32.2 µM
- TGI [4]: 29.5 µM
- TGI [5]: 39 µM
- TGI [6]: 40.9 µM
- TGI [7]: 47.5 µM
- TGI [8]: > 100 µM
- TGI [9]: 37.3 µM
- TGI [10]: 34.9 µM
- TGI [11]: 56.1 µM
- TGI [12]: > 100 µM
- TGI [13]: 61.1 µM
- TGI [14]: 35 µM
- TGI [15]: 84.1 µM
- TGI [16]: 34.8 µM
- TGI [17]: 40.3 µM
- TGI [18]: 33 µM
- TGI [19]: 34.6 µM
- TGI [20]: 42.6 µM
- TGI [21]: 67.9 µM
- TGI [22]: 30 µM
- TGI [23]: 64.2 µM
- TGI [24]: 31.5 µM
- TGI [25]: > 100 µM
- TGI [26]: 44.2 µM
- TGI [54]: 55.7 µM
- TGI [27]: 74.3 µM
- TGI [28]: 66.3 µM
- TGI [29]: 77.2 µM
- TGI [30]: 27 µM
- TGI [31]: 37 µM
- TGI [32]: 76.9 µM
- TGI [33]: 65.1 µM
- TGI [34]: 46.4 µM
- TGI [55]: 43.8 µM
- TGI [35]: 52.6 µM
- TGI [36]: 44.3 µM
- TGI [37]: 53.8 µM
- TGI [38]: 68.6 µM
- TGI [39]: > 100 µM
- TGI [40]: > 100 µM
- TGI [41]: 34.1 µM
- TGI [43]: > 100 µM
- TGI [44]: 38.1 µM
- TGI [56]: 52.2 µM
- TGI [45]: 37 µM
- TGI [46]: > 100 µM
- TGI [47]: 34.1 µM
- TGI [48]: > 100 µM
- TGI [49]: 50.6 µM
- TGI [50]: 95.7 µM
- TGI [51]: > 100 µM
- TGI [52]: 41.6 µM
- TGI [53]: 31.9 µM
